Measurements published in patent US20040086607A1, “Food astringency evaluating method and astringency evaluating apparatus” (SAPPORO BREWERIES LIMITED, priority 2001, published 2004).

Columns and labels:
Type in all cases: binding
gelatin [1] = experiment: change in frequency with gelatin sensor (quartz oscillator with gelatin immobilized on the electrode); settings: catechin 2 ppm and 6 ppm; for change in frequency: gelatin sensor in distilled water, up to 4 minutes after addition, quercetin and epicatechin 20 μM
Method: First, the gold electrode (diameter: 5 mm) of a sensor equipped with a quartz oscillator (Fragrance Sensor SF-105, product of Sogo Pharmaceutical Co., Ltd.) was immersed in 20 ml of a 1.2 N sodium hydroxide solution for 20 minutes, after which the electrode surface was washed with 500 ml of distilled water and immersed in 1.2 N dilute hydrochloric acid for 2 minutes. The electrode surface was then washed with distilled water and immersed in 12 N concentrated hydrochloric acid for 5 minutes, and the electrode was subsequently washed thoroughly with distilled water and dried at 100° C. for 20 minutes to obtain a quartz oscillator having hydroxyl groups arranged on the electrode surface.
After air-cooling the quartz oscillator, it was immersed in 0.3 ml of a 2% 3-aminopropyltriethoxysilane/acetone solution and allowed to stand at room temperature for 20 hours to introduce amino groups on to the electrode surface. The quartz oscillator was then subjected to ultrasonic washing treatment in 20 ml of acetone and dried at 70° C. for 90 minutes.
Next, 30 μl of 2.5% glutaraldehyde/20 mM phosphate buffer solution (pH 7.0) was placed on the amino group-introduced electrode surface, and the electrode was allowed to stand at room temperature for 2 hours. After then washing the electrode surface in 20 ml of 20 mM phosphate buffer solution and 20 ml of distilled water, it was mounted on an aqueous phase measuring sensor. […]
First, the sensor element measuring section of the gelatin sensor was immersed for 30 seconds in 100 ml of distilled water, and stabilization of frequency was confirmed. Next, 0.1 ml of a catechin/ethanol solution was added to the distilled water, and the change in frequency was measured up to 4 minutes after addition. […]
The change in frequency was also measured in the same manner as above except that quercetin/ethanol solutions and epicatechin/ethanol solutions were used instead of the catechin/ethanol solutions, and the astringency component concentration after addition to the distilled water was adjusted to 20 μM. […]

[2] = tested on: mouse proline-rich peptide; experiment: change in frequency with lipid membrane sensor, complex with mouse proline-rich peptide; settings: FIG. 9
Excerpt: (§1) The electrode of a sensor equipped with a quartz oscillator (Fragrance Sensor SF-105, product of Sogo Pharmaceutical Co., Ltd.) was coated with a lipid membrane composed of dioctadecylammonium polystyrenesulfonic acid to obtain a lipid membrane sensor.
The obtained astringency evaluating apparatus was used for measurement of the change in frequency corresponding to adsorption on to the lipid membrane by complex between proline-rich peptide and tannic acid.
First, the sensor element measuring section of the lipid membrane sensor was immersed in a 25 mM acetate buffer solution (pH 4.3) dissolving 50, 100 or 150 mg/l of mouse proline-rich peptide (Sawady Technologies), and stabilization of frequency was confirmed. Next, 0.1 ml of tannic acid was added to each mouse proline-rich peptide/acetate buffer solution, and the change in frequency was measured up to 5 minutes after addition. For the measurement, the tannic acid concentration of the buffer solution immediately after tannic acid addition was 8 mg/l.

gelatin [3] = experiment: change in frequency with lipid membrane sensor, complex with gelatin
Method: as §1
The change in frequency was also measured in the same manner as above except that gelatin (Aldrich Chemical Company, Inc.) or bovine serum albumin (Wako Junyaku Kogyo) was used instead of the mouse proline-rich peptide, and tannic acid (concentration after addition to buffer solution [hereunder referred to simply as “concentration in buffer solution”]: 8 mg/l, and polyphenone 100 (concentration in buffer solution: 50 mg/l) were added. As comparative tests, the same measurement was conducted using sucrose (sweet component, concentration in buffer solution: 1.7 mM), quinine sulfate (bitter component, concentration in buffer solution: 0.27 μM), tartaric acid (acidic component, concentration in buffer solution: 14 μM), NaCl (salty component, concentration in buffer solution: 1.1 mM) and glutamic acid (acidic/savory component, concentration in buffer solution: 30 μM). Also, the change in frequency during 4 minutes after adding different components using bovine serum albumin is shown in FIG. 11. […]

bovine serum albumin = target: T1, bovine serum albumin (Bos taurus, UniProt P02769); experiment: change in frequency with lipid membrane sensor, complex with bovine serum albumin; settings: bovine serum albumin in acetate buffer, 4 minutes after adding, tannic acid 8 mg/l, polyphenone 100 50 mg/l, FIG. 11
T1 construct: purchased Wako Junyaku Kogyo
Method: as §1
The change in frequency was also measured in the same manner as above except that gelatin (Aldrich Chemical Company, Inc.) or bovine serum albumin (Wako Junyaku Kogyo) was used instead of the mouse proline-rich peptide, and tannic acid (concentration after addition to buffer solution [hereunder referred to simply as “concentration in buffer solution”]: 8 mg/l, and polyphenone 100 (concentration in buffer solution: 50 mg/l) were added. As comparative tests, the same measurement was conducted using sucrose (sweet component, concentration in buffer solution: 1.7 mM), quinine sulfate (bitter component, concentration in buffer solution: 0.27 μM), tartaric acid (acidic component, concentration in buffer solution: 14 μM), NaCl (salty component, concentration in buffer solution: 1.1 mM) and glutamic acid (acidic/savory component, concentration in buffer solution: 30 μM). Also, the change in frequency during 4 minutes after adding different components using bovine serum albumin is shown in FIG. 11.

T1 sequence (P02769 25-607): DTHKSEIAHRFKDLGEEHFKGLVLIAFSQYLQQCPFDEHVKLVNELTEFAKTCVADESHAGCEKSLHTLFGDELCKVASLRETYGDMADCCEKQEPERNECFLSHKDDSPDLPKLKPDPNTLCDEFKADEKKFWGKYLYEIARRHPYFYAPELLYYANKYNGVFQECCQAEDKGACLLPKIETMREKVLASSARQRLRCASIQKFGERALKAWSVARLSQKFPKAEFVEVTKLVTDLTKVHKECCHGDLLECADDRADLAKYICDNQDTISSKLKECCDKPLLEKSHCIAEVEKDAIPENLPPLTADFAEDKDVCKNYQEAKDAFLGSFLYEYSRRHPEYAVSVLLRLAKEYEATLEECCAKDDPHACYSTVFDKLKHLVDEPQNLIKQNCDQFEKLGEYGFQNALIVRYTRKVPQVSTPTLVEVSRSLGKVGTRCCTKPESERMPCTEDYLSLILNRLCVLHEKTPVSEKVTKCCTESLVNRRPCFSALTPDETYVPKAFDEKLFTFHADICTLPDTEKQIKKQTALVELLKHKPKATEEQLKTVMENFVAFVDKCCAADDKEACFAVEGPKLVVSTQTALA

| change in frequency (bovine serum albumin) | Molecule | change in frequency (gelatin [1]) | change in frequency ([2]; 25 mM acetate buffer pH 4.3, mouse proline-rich peptide 50, 100 or 150 mg/l, tannic acid 8 mg/l, up to 5 minutes) | change in frequency versus concentration ([2]; mouse proline-rich peptide) | correlation between tannic acid concentration and change in frequency (gelatin [3]; 10 mg/l gelatin/25 mM acetate buffer solution, FIG. 12) | change in frequency (gelatin [3]; gelatin in acetate buffer, 4 minutes after adding, tannic acid 8 mg/l, polyphenone 100 50 mg/l, FIG. 10) | change in frequency versus catechin concentration (gelatin [1]; gelatin sensor, FIG. 5) |
| --- | --- | --- | --- | --- | --- | --- | --- |
|  | O=c1c(O)c(-c2ccc(O)c(O)c2)oc2cc(O)cc(O)c12 [quercetin] | notable change in frequency |  |  |  |  |  |
| notable change in frequency | O=C(OC[C@H]1O[C@@H](OC(=O)c2cc(O)c(O)c(OC(=O)c3cc(O)c(O)c(O)c3)c2)[C@H](OC(=O)c2cc(O)c(O)c(OC(=O)c3cc(O)c(O)c(O)c3)c2)[C@@H](OC(=O)c2cc(O)c(O)c(OC(=O)c3cc(O)c(O)c(O)c3)c2)[C@@H]1OC(=O)c1cc(O)c(O)c(OC(=O)c2cc(O)c(O)c(O)c2)c1)c1cc(O)c(O)c(OC(=O)c2cc(O)c(O)c(O)c2)c1 [tannic acid] |  | notable change in frequency | greater with increasing tannic acid concentration | adequately satisfactory correlation | notable change in frequency |  |
|  | catechin | notable change in frequency |  |  |  |  | greater with increasing catechin concentration |
